Data as given in patent US6831039B1, “3-(heterocyclyl)-substituted benzolpyrazols” (BASF Aktiengesellschaft, priority 1998, dated 2004).

What was measured:
Assay in all cases: Greenhouse post-emergence herbicidal test
green foxtail = type: in vivo, Setaria viridis
From the text: (§1) The seeds of the test plants were sown separately for each species. For the post-emergence treatment, the test plants were first grown to a height of 3 to 15 cm, depending on the plant habit, and only then treated with the active compounds which had been suspended or emulsified in water. The test plants were, for this purpose, either sown directly and grown in the same containers, or they were first grown separately as seedlings and transplanted into the test containers a few days prior to treatment. The application rate for the post-emergence treatment was 0.5, 0.25, 0.125 or 0.0625 kg of a.s. (active substance)/ha. Depending on the species, the plants were kept at 10-25° C. or 20-35° C. The test period extended over 2 to 4 weeks. During this time, the plants were tended, and their response to the individual treatments was evaluated. The evaluation was carried out using a scale from 0 to 100. 100 means no emergence of the plants, or complete destruction of at least the aerial parts and 0 means no damage, or normal course of growth. The plants used in the greenhouse experiments were of the following species: [table]

lady's-thumb = type: in vivo, Polygonum persicaria; conditions: 0.25 or 0.125 kg/ha
From the text: as §1

wild oat = type: in vivo, Avena fatua; conditions: 0.25 or 0.125 kg/ha
From the text: as §1

white mustard = type: in vivo, Sinapis alba; conditions: 0.25 or 0.125 kg/ha
From the text: as §1

pigweed = type: in vivo, Amaranthus retroflexus; conditions: 0.25 or 0.125 kg/ha
From the text: as §1

barnyard grass = type: in vivo, Echinochloa crus galli; conditions: 0.5 or 0.25 kg/ha
From the text: as §1

lamb's-quarters = type: in vivo, Chenopodium album; conditions: 0.5 or 0.25 kg/ha
From the text: as §1

black nightshade = type: in vivo, Solanum nigrum; conditions: 0.5 or 0.25 kg/ha
From the text: as §1

Cc1c(C(=O)c2cnn(C(C)C)c2O)ccc(S(C)(=O)=O)c1C1=NOCC1 [Compound 2.9]
very good: post-emergence action on grasses and weeds (green foxtail; 0.25 or 0.125 kg/ha) | post-emergence action on grasses and weeds (lady's-thumb) | post-emergence action on grasses and weeds (wild oat) | post-emergence action on grasses and weeds (white mustard) | post-emergence action on grasses and weeds (pigweed)

Cc1nn(C(C)(C)C)c(O)c1C(=O)c1ccc(S(C)(=O)=O)c(C2=NOCC2)c1C [Compound 2.8]
very good: post-emergence control of harmful plants (green foxtail; 0.5 or 0.25 kg/ha) | post-emergence control of harmful plants (barnyard grass) | post-emergence control of harmful plants (lamb's-quarters) | post-emergence control of harmful plants (black nightshade)
